Molecules are shown by their SMILES.

The results in this text go back to patent publication US20250235403A1, “COMPOSITIONS AND METHODS OF THE DELIVERY OF ACTIVE AGENTS INCLUDING NUCLEIC ACIDS” (Ohio State Innovation Foundation, priority 2021, published 2025).

One series deals with MC38 cells. Put plainly: In vitro gene regulation by R848 NE, IVM NE, R848-IVM NE. Type of series: cell-based, murine. Particulars: 8 μM, 24 hours.
Series [1] is described as follows: Saturated solubility study. Particulars: in squalene-based NE compared with PBS solvent. The class given is physicochemical. The protocol: In the saturated solubility study, R848 or IVM were dissolved in PBS or formulated in NE at 2 mg/ml and incubated at room temperature for 24 hours. Insoluble solid drugs were pelleted down by centrifugation. Supernatants were collected for concentration analysis. R848 concentrations were quantified by UV-Vis spectrometry at 320 nm using a NanoDrop 2000 spectrophotometer. IVM concentrations were quantified by high-performance liquid chromatography (HPLC) using an isocratic mobile phase composed of water/methanol/acetonitrile (8:36:56, v/v/v), an C18 column (Kromasil 150-C-18, 4.6×150 mm), and PDA detection at 230 nm.

Series [2] is described as follows: Evaluation of squalene as a fusogenic oil (OD500/OD600 of anionic nanoemulsions). Type of series: physicochemical. Particulars: oil/DOPC/CHEMS nanoemulsions; versus medium-chain and long-chain triglyceride. Here is the method: To compare the fusogenicities of different oils, simple anionic nanoemulsions were prepared. The compositions evaluated were: oil/DOPC/CHEMS (30:40:40 mole/mole). Oil was selected from squalene, medium-chain triglyceride (MCT) from Abitec (Captex 300), long-chain triglyceride (LCT, soybean oil from Sigma-Aldrich). DOPC: dioleoylphosphatidylcholine, CHEMS: cholesterol hemisuccinate. The various formulations were prepared at pH 8.0 in PBS and then diluted into various buffers with different pH values and incubated for 5 min at room temperature prior to OD measurement. OD500 and OD600 were measured to indicate particle size, with larger particle size indicating increased fusogenicity.

Experimental for MC38 cells: MC38 cells were seeded at 3×10^5 cells/well in 6-well plates 24 hours before treatments. […] R848 and IVM were both treated at 8 μM, either as free drug solution or in squalene NE. Total RNA was extracted using TRI reagent (Zymo Research) per manufacturer protocol. cDNA was prepared by high-capacity cDNA reverse transcription kit (Invitrogen, Waltham, MA, USA), and real-time qPCR (RT-qPCR) was done using SsoAdvanced™ Universal SYBRR Green Supermix (Bio-Rad Laboratories, Hercules, CA) on a QuantStudio 7 Flex Real-time PCR System. RT-qPCR primers for murine Calreticulin, Hmgb1, Lc3b, and Actb were purchased from Sigma-Aldrich. Actb was selected as the housekeeping gene control. The relative amount of RNA level was calculated and compared according to the 2−ΔΔCt method.

As for `CC[C@H](C)[C@H]1O[C@]2(CC[C@@H]1C)C[C@@H]1C[C@@H](C/C=C(\C)[C@@H](O[C@H]3C[C@H](OC)[C@@H](O[C@H]4C[C@H](OC)[C@@H](O)[C@H](C)O4)[C@H](C)O3)[C@@H](C)/C=C/C=C3\CO[C@@H]4[C@H](O)C(C)=C[C@@H](C(=O)O1)[C@]34O)O2` [IVM, Ivermectin], the “Calreticulin mRNA level” value with MC38 cells was “did not show significant Calreticulin regulation”. Further, in series [1], the increase of solubility was determined as 100 fold.

The compound `CCOCc1nc2c(N)nc3ccccc3c2n1CC(C)(C)O` [R848, Resiquimod] returned an increase of solubility in series [1] of 2 fold.

As for `CC(C)=CCC/C(C)=C/CC/C(C)=C/CC/C=C(\C)CC/C=C(\C)CCC=C(C)C` [squalene], the fusogenicity result in series [2] is listed as “improved fusogenicity”.
